Test results as given in patent publication US9688637B2, “3-amidobenzamides and uses thereof for increasing cellular levels of A3G and other A3 family members” (Northwestern University, priority 2014, dated 2017).

Experiments:
A3G-Luc = A3G-Luc luciferase screen in 293T cells stably expressing A3G-Luc; format: cell-based, human; details: 10 μM, 48 hrs, DMSO = 100%
Source text: This background led to construction of cell lines to use in a search for compounds that might boost levels of A3s in the HIV target cells of the majority of HIV-infected persons who are non-controllers. The goal is to test a strategy of using such a booster in acute/early infection to prevent the hypothesized decrease of A3G and related A3s in an effort to increase “control” in persons lacking HLA B57/27-associated control. […] 293T and TZM-bl cells were maintained in DMEM (containing 4.5 g/liter glucose, L-glutamine, and sodium pyruvate) medium plus 10% fetal bovine serum, 50 IU/ml penicillin, and 50 μg/ml streptomycin at 37° C. and 5% CO2 throughout the experiments. […]. After collecting viral supernatant, 293T cells were infected with viral particles harboring the A3G-Luc expressing vector and selected with puromycin (0.75 μg/ml) for three days. Ten single cell clones of stable cells were isolated and tested for expression of A3G-Luc protein by both immunoblotting using antibody against A3G and measuring luciferase activity. Expressions in cell lines used for subsequent experiments are depicted in FIG. 2, upper panel. The A3G-Luc fusion protein was sensitive to Vif-mediated degradation (FIG. 3). Similar cells lines stably expressing A3F were constructed with the same methods (not shown).
To screen compounds that can boost A3G levels, 293T cells (25,000 cells per well in 96-well plate) stably expressing A3G-Luc protein or A3G-Luc/Vif proteins were plated. […] After 48 hrs of incubation with compounds culture medium was removed from each well and replaced with 100 μl of Britelite Plus luciferase assay substrate (PerkinElmer). Following 5 min. of incubation at room temperature, 75 μl of each cell lysate was transferred to a 96-well OptiPlate 96 (PerkinElmer) and luminescence was measured in a VICTOR X2 Multilabel Reader (PerkinElmer). Relative activity of compounds for their boosting capability A3G-Luc activity was calculated by plotting DMSO-treated A3G-Luc or A3G-Luc/Vif cells as 100%. Cellular cytotoxicity was measured by counting number of cells after 48 hrs of incubation with compounds compared to DMSO treated cells.

A3G-Luc/Vif = A3G-Luc/Vif luciferase screen in 293T cells stably co-expressing A3G-Luc and HIV-1 Vif; format: cell-based, human; details: 10 μM, 48 hrs, DMSO = 100%
Protocol: FIG. 6. 293T cell clone #6 stably co-expressing A3G-Luciferase fusion protein together with HIV-1 Vif was used. Small molecule compounds were tested for their effects on stability of A3G and inhibition of Vif activity against A3G by measuring luciferase activity, relative to treatment with control DMSO only. The relative % luciferase activity was higher after treatment with NU compounds than DMSO.
[…]. After sorting, expression of both A3G-Luc and Vif was confirmed by immunoblotting using antibody against both A3G and Vif.
To screen compounds that can boost A3G levels, 293T cells (25,000 cells per well in 96-well plate) stably expressing A3G-Luc protein or A3G-Luc/Vif proteins were plated. After 24 hrs post plating culture medium was replaced with 100 μl of new medium containing either DMSO as a control or various compounds (10 μM concentration). After 48 hrs of incubation with compounds culture medium was removed from each well and replaced with 100 μl of Britelite Plus luciferase assay substrate (PerkinElmer). Following 5 min. of incubation at room temperature, 75 μl of each cell lysate was transferred to a 96-well OptiPlate 96 (PerkinElmer) and luminescence was measured in a VICTOR X2 Multilabel Reader (PerkinElmer). Relative activity of compounds for their boosting capability A3G-Luc activity was calculated by plotting DMSO-treated A3G-Luc or A3G-Luc/Vif cells as 100%. Cellular cytotoxicity was measured by counting number of cells after 48 hrs of incubation with compounds compared to DMSO treated cells.

Wild-type HIV-1 = experiment: A3G-mediated restriction of wild-type HIV-1; virus from 293T stably expressing A3G, TZM-bl readout; format: cell-based; details: Human immunodeficiency virus 1, HEK-293T, read-out: A3G-mediated Restriction by Compounds on Wild-type HIV-1 (% of HIV replication relative to DMSO treated Control)
Protocol: To test the effect of compounds shown to boost A3G-Luc levels in our screening systems on inhibition of wild-type HIV-1 replication by A3G or A3F, 293T cell lines stably expressing A3G or A3F were plated (750,000 cells per well in 6-well plate). At 24 hrs post plating, 1.5 μg of a wild-type (Vif-positive) HIV-1 proviral vector, NL4.3, was transfected into the 293T stable cell lines expressing either A3G or A3F. At 4 hrs post transfection, either DMSO as a control or an individual compound from series described below was added into the culture medium at a 10 μM concentration. At 1 day post transfection, supernatant fluids containing viral particles were filtered through […] filter to remove cellular debris. To test the effect of compound on HIV-1 replication, TZM-bl indicator cells were plated at a density of 10,000 cells/well in a 96 well culture plate 24 hrs prior to infection. TZM-bl indicator cells express luciferase gene under the control of HIV LTR promoter and are routinely used to measure HIV-1 replication capability. On the day of infection, the culture medium was removed and the cells inoculated with equal amount of HIV-1 particles in triplicate with 100 μl of viral supernatants in culture medium containing 20 μg/ml DEAE-dextran. After 24 hrs of incubation, culture medium was removed from each well and replaced with 100 μl of Britelite Plus luciferase assay substrate. Following 5 min. of incubation at room temperature, 75 μl of each cell lysate was transferred to a 96-well OptiPlate 96 and luminescence was measured in a VICTOR X2 Multilabel Reader as described above. Relative infectivity was calculated by plotting luciferase activity from viral particle from DMSO treated A3G or A3F cell lines as 100%. We only tested effect A3F- or A3G mediated restriction of HIV-1 replication by compounds boosting luciferase activity by more than 160% compared to DMSO control sample.

Structure (SMILES) | A3G-Luc Activity (% of Relative Light Units compared to DMSO treated control) (A3G-Luc) | Vif-A3G-Luc Activity (% of RLUs compared to DMSO treated control) (A3G-Luc/Vif) | activity at 10 µM (Wild-type HIV-1)
COc1ccc(C(=O)N2CCc3ccccc3C2)cc1NC(=O)C(C)C [NU-570] | 96% | 87% | –
COc1ccc(C(=O)Nc2ccc(Cl)c(Cl)c2)cc1NC(=O)CC(C)(C)C [NU-474] | 105% | 71% | –
COc1ccc(CNC(=O)c2ccc(OC)c(NC(=O)C(C)C)c2)cc1 [NU-568] | 96% | 87% | –
COc1ccc(C(=O)Nc2ccc3c(c2)OCO3)cc1NC(=O)C(C)C [NU-50] | 115% | 145% | –
COc1ccc(C(=O)Nc2ccc(Cl)c(Cl)c2)cc1NC(=O)c1ccncc1 [NU-306] | 96% | 84% | –
COc1ccc(C(=O)Nc2ccc(Cl)c(Cl)c2)cc1NC(=O)N1CCCCC1 [NU-473] | 110% | 84% | –
COc1ccc(C(=O)Nc2ccc(Cl)c(Cl)c2)cc1NC(=O)C1CCOCC1 [NU-305] | 121% | 109% | –
O=C(CCCCC1SC[C@@H]2NC(=O)N[C@H]12)NCCOCCOc1ccc(C(=O)Nc2ccc(Cl)c(Cl)c2)cc1NC(=O)CC1CC1 (stereo partly shown) [NU-128] | 141% | – | 62%
COc1ccc(C(=O)Nc2ccncc2)cc1NC(=O)C(C)C [NU-565] | 66% | 55% | –
COc1ccc(C(=O)NCc2ccncc2)cc1NC(=O)C(C)C [NU-569] | 98% | 85% | –
COc1ccc(C(=O)NC2CCCCC2)cc1NC(=O)C(C)C [NU-573] | 117% | 80% | –
CCCCOc1ccc(C(=O)Nc2ccc(Cl)c(Cl)c2)cc1NC(=O)CC1CC1 [NU-615] | 102% | 105% | –
COc1ccc(C(=O)Nc2ccc(Cl)c(Cl)c2)cc1NC(=O)C1C2CC3CC(C2)CC1C3 (stereo not shown) [NU-459] | 106% | 69% | –
CCC(C)C(=O)Nc1cc(C(=O)Nc2ccc(Cl)c(Cl)c2)ccc1OC (stereo not shown) [NU-456] | 148% | 113% | –
COc1ccc(C(=O)Nc2ccc(Cl)c(Cl)c2)cc1NS(=O)(=O)C1CCC1 [NU-470] | 100% | 85% | –
COc1ccc(C(=O)Nc2ccc(Cl)c(Cl)c2)cc1NS(=O)(=O)C1CC1 [NU-469] | 100% | 82% | –

Structure (SMILES) | A3G-Luc Activity (% of Relative Light Units compared to DMSO treated control) (A3G-Luc) | Vif-A3G-Luc Activity (% of RLUs compared to DMSO treated control) (A3G-Luc/Vif) | activity at 10 µM (Wild-type HIV-1)
COc1ccc(C(=O)Nc2ccc(Cl)c(Cl)c2)cc1NC(=O)Cc1ccccc1 [NU-308] | 92% | 113% | –
COc1ccc(C(=O)NCc2ccc(F)cc2)cc1NC(=O)C(C)C [NU-567] | 93% | 76% | –
COc1ccc(C(=O)Nc2ccc(Cl)c(Cl)c2)cc1NC(=O)CC(C)C [NU-452] | 140% | 110% | –
COc1ccc(C(=O)Nc2ccc(Cl)c(Cl)c2)cc1NC(=O)c1ccccc1 [NU-309] | 100% | 94% | –
COc1ccc(C(=O)Nc2ccc(Cl)c(Cl)c2)cc1NC(=O)OC(C)C [NU-461] | 124% | 70% | –
COc1ccc(C(=O)Nc2ccc(Cl)c(Cl)c2)cc1NC(=O)C1CC1 [NU-304] | 124% | 138% | –
COc1ccc(C(=O)Nc2ccc(Cl)c(Cl)c2)cc1NC(=O)C1CCCC1 [NU-455] | 188% | 131% | –
CCCCOc1ccc(C(=O)Nc2ccc(Cl)c(Cl)c2)cc1NC(=O)C1CCC1 [NU-614] | 96% | 99% | –
COc1ccc(C(=O)Nc2ccc(OC)c(OC)c2)cc1NC(=O)C(C)C [NU-572] | 98% | 91% | –
CCC(C)(C)C(=O)Nc1cc(C(=O)Nc2ccc(Cl)c(Cl)c2)ccc1OC [NU-457] | 120% | 93% | –
COc1ccc(C(=O)NCc2ccccc2)cc1NC(=O)C(C)C [NU-566] | 106% | 80% | –
COc1ccc(C(=O)Nc2ccc(Cl)c(Cl)c2)cc1NC(=O)CC1CCCCC1 [NU-454] | 86% | 84% | –
COc1ccc(C(=O)Nc2ccc(Cl)c(Cl)c2)cc1NC(=O)CC1CCCC1 [NU-453] | 169% | 95% | –
COc1ccc(C(=O)Nc2ccc(F)c(F)c2)cc1NC(=O)C(C)C [NU-571] | 116% | 104% | –
COc1ccc(C(=O)Nc2ccc(Cl)c(Cl)c2)cc1NC(=O)c1ccc2c(c1)OCO2 [NU-303] | 90% | 71% | –
COc1ccc(C(=O)Nc2ccc(Cl)c(Cl)c2)cc1NC(=O)c1cccnc1 [NU-307] | 102% | 91% | –
